Assay results: patent US9133235B2, “Macrocyclic antagonists of the motilin receptor for treatment of gastrointestinal dysmotility disorders” (Ocera Therapeutics, Inc., priority 2006, dated 2015)
“And” between values parts separate entries of the source, which are not always exact repeats. Equal entries are not always repeated. Where two headings read alike, the source gives them in different places.

How the values were obtained:
[1] = Oral bioavailability in rat of representative formulations of compound 552; assay type: in vivo
From the text: The pharmacokinetic behavior of compound of the invention can be ascertained by methods well known to those skilled in the art. (Wilkinson, G. R. “Pharmacokinetics: The Dynamics of Drug Absorption, Distribution, and Elimination” in Goodman & Gilman's The Pharmacological Basis of Therapeutics, Tenth Edition, Hardman, J. G.; Limbird, L. E., Eds., McGraw Hill, Columbus, Ohio, 2001, Chapter 1.) The following method was used to investigate the pharmacokinetic parameters (elimination half-life, total plasma clearance, etc.) for intravenous, subcutaneous and oral administration of compounds of the present invention.
Preparation of Representative Formulations of Compounds of the Invention
The pharmacokinetic parameters of representative formulations are determined through established methods known to those skilled-in the art as previously referenced in Method 3-I. Results with representative formulations for a representative compound of the present invention are shown below.

[2] = Plasma concentrations of compound 552 in beagle dogs during the CID study; assay type: in vivo; details: male, dog, iv; for AUC(0-t): read-out: average AUC0-t (converted)
Experimental: The test article No. 2 (compound 552) was intravenously infused via an implanted catheter over 45 minutes to all the animals in Group 4 four days before the start of TA1 (irinotecan) treatment and throughout the 28-day study period. […] The daily dosage (i.e. 5.0, 15.0 and 5.0 mg/kg/day for Groups 2 to 4 respectively) was administered by two equal doses (i.e. 2.5, 7.5 and 2.5 mg/kg/occasion for Groups 2 to 4 respectively) which were separate by at least 6 h. Each dose was infused at a dose volume of 10 mL/kg/h. The vehicle for compound 552 was administered to all dogs in Group 5 by following the same dosing procedures and regimen for compound 552 administration for 23 days (from Day 6 to Day 28). The actual volume infused was calculated and adjusted based on the most recent practical body weight of each animal. The syringes/bags were changed at appropriate intervals as necessary and the weights recorded prior to the start and at the end of the infusion.
Body weights were recorded for all animals once prior to group assignment, and approximately one week prior to initiation of treatment. Body weights were recorded for all animals up to 1 day prior to dosing and twice weekly thereafter during the treatment/observation periods, as well as terminally prior to necropsy (fasted). Food consumption was measured daily during the week prior to treatment and throughout the treatment/observation periods. A series of blood samples (approximately 2.0 mL each) were removed from each dog in Groups 2 and 3 after the first (am) infusion on the first day of treatment with compound 552 and after the second (pm) infusion on the last day of treatment with compound 552. (Note: the second (pm) infusion on the first day of treatment with compound 552 was performed after completion of the last blood sampling). For this purpose, each dog was bled by venipuncture and the samples collected into tubes containing the anticoagulant, K2 EDTA. Tubes were placed on wet ice pending processing. On each occasion, samples were collected prior to the start of infusion, 5, 15, 30, 45, 50, 65, 95, 135 minutes, 3 and 6 hours after the start of infusion of compound 552. Following collection, the samples were centrifuged at approximately 1500×g, approximately 4° C., for at least 10 minutes and the resulting plasma recovered and dispensed into two aliquots and stored frozen (at approximately −80° C.) pending shipment.
Plasma concentrations of compound 552 in male beagle dogs receiving low and high intravenous doses of compound 552 as part of the above experiment were determined. Plasma samples were prepared for analysis by solid phase extraction and analyzed by LC-MS/MS. […] The average AUC0-t was similar on the first (78,233 ng·min/mL) and last day (83,047 ng·min/mL) of dosing for the low dose group (2.5 mg/kg/occasion) and was proportionally higher on the first day (246,073 ng·min/mL) of dosing for the high dose group (7.5 mg/kg/occasion).

[3] = oral 8 mg/kg, 5% HP-β-CD in water
[4] = oral 8 mg/kg, Cremophor EL/Lysorbate 80/Soybean oil
[5] = oral 8 mg/kg, Oleic Acid/Labrafil
[6] = plasma, IV 2 mg/kg, 5% HP-β-CD in water
[7] = plasma, iv, 2 mg/kg, IV 2 mg/kg, 5% HP-β-CD in water
[8] = plasma, po, 8 mg/kg, oral 8 mg/kg, 5% HP-β-CD in water
[9] = plasma, po, 8 mg/kg, oral 8 mg/kg, Cremophor EL/Lysorbate 80/Soybean oil
[10] = plasma, po, 8 mg/kg, oral 8 mg/kg, Oleic Acid/Labrafil

SMILES: CCC[C@@H]1NC(=O)[C@@H](C(C)C)NC(=O)[C@@H](Cc2ccc(O)c(Cl)c2)N[C@@H](C)COc2ccccc2CCCNC1=O [Compound 552]
- F (%) (average) [1, 3]: 10 ± 5%
- Tmax (min) [1, 3]: 5/15
- F (%) (individual results) ([1]; oral 8 mg/kg, 5% HP-β-CD in water, 8 mg/kg): 6% and 15% and 9%
- F (%) (average) [1, 4]: 16 ± 1%
- Tmax (min) [1, 4]: 15/30
- F (%) (individual results) ([1]; oral 8 mg/kg, Cremophor EL/Lysorbate 80/Soybean oil, 8 mg/kg): 18% and 15% and 16%
- F (%) (average) [1, 5]: 14 ± 7%
- Tmax (min) [1, 5]: 30/60
- F (%) (individual results) ([1]; oral 8 mg/kg, Oleic Acid/Labrafil, 8 mg/kg): 7% and 21% and 15%
- Clearance [1, 6]: 55 ± 10 mL/min/kg
- Tmax [1, 6]: 5 min
- half-life [1, 6]: 45 ± 13 min
- AUC(0-inf) [1, 7]: 616 ng·h/mL
- Cmax [1, 7]: 1720 ± 299 ng/mL
- AUC(0-inf) [1, 8]: 255 ng·h/mL
- Cmax [1, 8]: 369 ± 97 ng/mL
- AUC(0-inf) [1, 9]: 397 ng·h/mL
- Cmax [1, 9]: 229 ± 162 ng/mL
- AUC(0-inf) [1, 10]: 357 ng·h/mL
- Cmax [1, 10]: 143 ± 77 ng/mL
- Cmax ([2]; 2.5 mg/kg, 2.5 mg/kg 45-min infusion, first day of treatment): ~1500 ng/mL
- Cmax ([2]; 2.5 mg/kg, 2.5 mg/kg 45-min infusion, last day of treatment): ~1800 ng/mL
- AUC(0-t) ([2]; 2.5 mg/kg, low dose group 2.5 mg/kg/occasion, first day): 1300 ng·h/mL
- AUC(0-t) ([2]; 2.5 mg/kg, low dose group 2.5 mg/kg/occasion, last day): 1380 ng·h/mL
- Cmax ([2]; 7.5 mg/kg, 7.5 mg/kg 45-min infusion, first day of treatment): ~3400 ng/mL
- Cmax ([2]; 7.5 mg/kg, 7.5 mg/kg 45-min infusion, last day of treatment): ~5000 ng/mL
- AUC(0-t) ([2]; 7.5 mg/kg, high dose group 7.5 mg/kg/occasion, first day): 4100 ng·h/mL
- AUC(0-t) ([2]; 7.5 mg/kg, high dose group 7.5 mg/kg/occasion, last day, one animal with particularly high AUC): 6350 ng·h/mL
